This note sets out measurements from US7671074B2, “Sulfonylguanidine compounds and pharmaceutical uses thereof” (Gruenenthal GmbH, priority 2000, dated 2010).

Test [1] deals with male albino mice (NMRI), formalin-induced nociception. The test is described as follows: Formalin test on mice (second phase). The class given is in vivo, mouse. Particulars: for ED50: Mus musculus. How it is done: The investigations to determine the antinociceptive action of the compounds according to the invention were carried out by the formalin test on male albino mice (NMRI, 25-35 g, Iffa Credo, Belgium).
In the formalin test the first (early) phase (0-15 minutes after the formalin injection) and the second (late) phase (15-60 minutes after the formalin injection) differ (D. Dubuisson et al., Pain, Vol. 4, pp. 161-174 (1977)). The early phase, being a direct reaction to the formalin injection, constitutes a model for acute pain, whereas the late phase is regarded as a model for persistent (chronic) pain (T. J. Coderre et al., Pain, Vol. 52, pp. 259-285 (1993)).
The compounds according to the invention were investigated in the second phase of the formalin test in order to obtain information on the effects of substances in chronic/inflammatory pain. By means of a single subcutaneous formalin injection (20 μl, 1% aqueous solution) into the dorsal side of the right-hand rear paw, a nociceptive reaction was induced in unconstrained experimental animals, manifested in a noticeable licking and biting of the affected paw.
The nociceptive behavior for the test period in the second (late) phase of the formalin test was continuously monitored by observing the animals. The pain reaction was quantified by totaling the time in seconds during which the animals continued to lick and bite the affected paw during the investigation period. After injecting substances that have an antinociceptive effect in the formalin test, the aforedescribed behavior pattern of the animals is reduced or possibly even cancelled.
Corresponding to the substance tests, in which the animals had been injected with the test substance before formalin, the control animals were injected with a vehicle, i.e. solvent (e.g. 0.9% NaCl solution) before the formalin injection. […]
Based on the quantification of the pain reaction, the effect of the substance in the formalin test was determined as the change in the control in percentage terms. […]

Test [2] has as its system male Sprague-Dawley rats with L5/L6 spinal nerve ligatures. The test is described as follows: In vivo experiments according to Chung (spinal nerve ligation, tactile withdrawal threshold). Further details: species or system rat. Particulars: for ED50: Rattus norvegicus. How it is done:
In male Sprague-Dawley rats spinal nerve ligatures were applied according to Kim and Chung (1992) to the left L5/L6 spinal nerves. At the same time spinal catheters were implanted according to Pogatzki et al. ^6 (2000). 4 to 6 days after the operation the tactile threshold baseline (withdrawal thresholds) was measured on the ipsilateral and contra lateral rear paw by an electronic vonFrey anaesthesiometer (IITC Life Science, USA). […] After the test and baseline measurement, gabapentin and substances according to the invention were administered. The tactile withdrawal thresholds were measured 30 minutes after administration. The results are expressed as ED50 and % maximal possible effect (% MPE; % of the maximal possible effect) on the ipsilateral side, in which the baseline is taken as 0% and the withdrawal threshold of a control group is taken as 100% MPE.

The target of another test is gabapentin binding site. The test is described as follows: Binding assay: displacement of gabapentin from its binding site. How it is done:
Gabapentin was used in a binding assay in order to check the binding and affinities of the selected compounds. The affinity of the compounds according to the invention was measured via the displacement of gabapentin from its binding site.

pIC50: −log10 of the molar value. Read-outs that look alike come from different tables or passages of the source.

The term ED50 denotes the midpoint of the dose-response relation. `NCC1(CC(=O)O)CCCCC1` [gabapentin, reference compound]: the median effective dose (ED50) amounted to 79 mg/kg in test [1] (iv, formalin test, i.v., read-out: ED50 value) and 92.6 mg/kg in test [2] (0.5 h).

The term pIC50 denotes the negative decadic logarithm of the IC50, by convention in mol/L. Higher therefore signals a small IC50. For the molecule `N/C(=N\S(=O)(=O)c1ccc(Cl)cc1)NCc1ccccn1` [Example 21, N-{amino-[(pyridin-2-yl-methyl)-amino]-methylene}-4-chlorobenzenesulfonamide], the 50% effective dose (ED50) turned out to be 97 mg/kg in test [1] (second (late) phase of the formalin test, read-out: Formalin Test on Mice - ED50) and 13.3 mg/kg in test [2] (read-out:, table title: Analgesia testing in rats according to Chung, further investigation). Also, the “inhibition of the formalin-induced nociception” value in test [1] (result in words) is listed as “exhibited an inhibition of the formalin-induced nociception”. For the same molecule, the “effect compared with gabapentin” value in test [2] (rats, Chung test, further investigation, result in words) was “superior in their effect to gabapentin”. For the same molecule, the “effect in the Chung test” value in test [2] (rats, further investigation, result in words) is “show an effect”. At gabapentin binding site (displacement of gabapentin from its binding site), this molecule gave a negative-log IC50 (pIC50) of 6.11. The Percent inhibition with gabapentin binding site (inhibition/displacement of gabapentin, concentration 10^−5 μM [sic]) amounted to 75%.
